Experimental data taken from patent US8163929B2, “Dihydropyridone amides as P2X7 modulators” (Roche Palo Alto LLC, priority 2008, dated 2012).

Target: T1, P2X7 (UniProt Q99572)
T1 sequence (Q99572 1-595): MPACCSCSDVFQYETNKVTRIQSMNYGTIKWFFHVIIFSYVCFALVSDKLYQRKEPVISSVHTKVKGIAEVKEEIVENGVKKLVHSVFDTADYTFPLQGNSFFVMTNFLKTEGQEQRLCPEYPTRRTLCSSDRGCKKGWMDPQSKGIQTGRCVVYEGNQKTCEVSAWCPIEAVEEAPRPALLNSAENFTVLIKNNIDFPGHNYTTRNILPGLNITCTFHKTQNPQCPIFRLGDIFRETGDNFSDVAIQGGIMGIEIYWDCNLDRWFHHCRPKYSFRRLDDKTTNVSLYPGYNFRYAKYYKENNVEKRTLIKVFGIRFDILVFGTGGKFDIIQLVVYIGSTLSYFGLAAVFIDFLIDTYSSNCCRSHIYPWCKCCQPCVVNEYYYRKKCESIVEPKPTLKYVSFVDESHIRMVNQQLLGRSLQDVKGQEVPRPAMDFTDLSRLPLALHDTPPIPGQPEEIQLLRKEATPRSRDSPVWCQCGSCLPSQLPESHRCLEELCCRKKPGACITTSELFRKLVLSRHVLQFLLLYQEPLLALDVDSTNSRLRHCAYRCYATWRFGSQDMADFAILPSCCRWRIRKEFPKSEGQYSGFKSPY
Assay: P2X7 activity of Table 1
Assay type: cell-based
Conditions: pIC50 values for P2X7
Summary of the method: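 FLIPR calcium flux with fluo-3 in 1321N1 cells expressing human P2X7 and HEK293 cells expressing rat P2X7, in HBSS with 2 mM CaCl2 and 2.5 mM probenecid. Antagonist pre-incubated 20 min at room temperature, then BzATP added (100 μM human, 5 μM rat). Peak response over 5 min normalised to 5 μM ionomycin.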

SMILES | pIC50
CCn1c(C)nnc1-c1ccc(C)c(NC(=O)C2=CNC(=O)C[C@H]2c2ccc(F)cc2)c1 [Compound 60, (S)-4-(4-Fluoro-phenyl)-6-oxo-1,4,5,6-tetrahydro-pyridine-3-carboxylic acid [5-(4-ethyl-5-methyl-4H-[1,2,4]triazol-3-yl)-2-methyl-phenyl]-amide] | 6.535
Cc1ccc(-c2cc(C)n(C[C@H](O)CO)n2)cc1NC(=O)C1=CN(C)C(=O)C[C@H]1c1ccc(F)cc1 [Compound 61, (S)-4-(4-Fluoro-phenyl)-1-methyl-6-oxo-1,4,5,6-tetrahydro-pyridine-3-carboxylic acid {5-[1-((S)-2,3-dihydroxy-propyl)-5-methyl-1H-pyrazol-3-yl]-2-methyl-phenyl}-amide] | 7.255
Cc1ccc(-c2cc(C3CC3)[nH]n2)cc1NC(=O)C1=CNC(=O)C[C@H]1c1ccc(F)cc1 [Compound 62, (S)-4-(4-Fluoro-phenyl)-6-oxo-1,4,5,6-tetrahydro-pyridine-3-carboxylic acid [5-(5-cyclopropyl-1H-pyrazol-3-yl)-2-methyl-phenyl]-amide] | 6.935
Cc1ccc(-c2ccn(C)n2)cc1NC(=O)C1=CNC(=O)C[C@H]1c1cccc(F)c1 [Compound 63, (S)-4-(3-Fluoro-phenyl)-6-oxo-1,4,5,6-tetrahydro-pyridine-3-carboxylic acid [2-methyl-5-(1-methyl-1H-pyrazol-3-yl)-phenyl]-amide] | 7.965
Cc1ccc(-c2cc(C)n(C[C@@H](O)CO)n2)cc1NC(=O)C1=CN(C)C(=O)C[C@H]1c1ccc(F)cc1 [Compound 64, (S)-4-(4-Fluoro-phenyl)-1-methyl-6-oxo-1,4,5,6-tetrahydro-pyridine-3-carboxylic acid {5-[1-((R)-2,3-dihydroxy-propyl)-5-methyl-1H-pyrazol-3-yl]-2-methyl-phenyl}-amide] | 7.585
Cc1ccc(-c2ccn(C)n2)cc1NC(=O)C1=CNC(=O)C[C@H]1c1ccc(F)cc1 [Compound 65, (S)-4-(4-Fluoro-phenyl)-6-oxo-1,4,5,6-tetrahydro-pyridine-3-carboxylic acid [2-methyl-5-(1-methyl-1H-pyrazol-3-yl)-phenyl]-amide] | 7.705
Cc1ccc(-n2cnnc2)cc1NC(=O)C1=CNC(=O)C[C@H]1c1ccc(F)cc1 [Compound 66, (S)-4-(4-Fluoro-phenyl)-6-oxo-1,4,5,6-tetrahydro-pyridine-3-carboxylic acid (2-methyl-5-[1,2,4]triazol-4-yl-phenyl)-amide] | 5.55
CCn1c(=O)cnn(-c2ccc(C)c(NC(=O)C3=CNC(=O)C[C@H]3c3ccc(F)cc3)c2)c1=O [Compound 67, (S)-4-(4-Fluoro-phenyl)-6-oxo-1,4,5,6-tetrahydro-pyridine-3-carboxylic acid [5-(4-ethyl-3,5-dioxo-4,5-dihydro-3H-[1,2,4]triazin-2-yl)-2-methyl-phenyl]-amide] | 7.575
Cc1ccc(-n2ncc(=O)n(C)c2=O)cc1NC(=O)C1=CN(C)C(=O)C[C@H]1c1ccc(F)cc1 [Compound 68, (S)-4-(4-Fluoro-phenyl)-1-methyl-6-oxo-1,4,5,6-tetrahydro-pyridine-3-carboxylic acid [2-methyl-5-(4-methyl-3,5-dioxo-4,5-dihydro-3H-[1,2,4]triazin-2-yl)-phenyl]-amide] | 7.01
Cc1ccc(-c2cc(C)n(CCO)n2)cc1NC(=O)C1=CNC(=O)C[C@H]1c1cccc(F)c1 [Compound 69, (S)-4-(3-Fluoro-phenyl)-6-oxo-1,4,5,6-tetrahydro-pyridine-3-carboxylic acid {5-[1-(2-hydroxy-ethyl)-5-methyl-1H-pyrazol-3-yl]-2-methyl-phenyl}-amide] | 7.92
Cc1ccc(-c2cc(C)n(CCO)n2)cc1NC(=O)C1=CN(C)C(=O)C[C@H]1c1cccc(F)c1 [Compound 70, (S)-4-(3-Fluoro-phenyl)-1-methyl-6-ox-1,4,5,6-tetrahydro-pyridine-3-carboxylic acid {5-[1-(2-hydroxy-ethyl)-5-methyl-1H-pyrazol-3-yl]-2-methyl-phenyl}-amide] | 7.72
